ChEMBL document CHEMBL5620396, “Phenotypic screening identifies a trisubstituted imidazo[1,2-a]pyridine series that induces differentiation in multiple AML cell lines” (Eur J Med Chem, 2023)
In brackets after ≈: the same amount, converted by molar mass. Activity calls are given as the source filed them. The calls are words filed in the database; no cut-off is given here.

Columns and labels:
[1] = AUC (0 to 8 hrs) in CD-1 mouse at 20 mg/kg, po administered as single dose and measured on day 1; type: ADME, organism-based; conditions: in vivo, time 1 day
[2] = test system: THP-1; assay: Induction of differentiation in human THP-1 cells assessed as upregulation of CD11b response incubated for 4 days by flow cytometry analysis; conditions: THP-1, 96 h
[3] = test system: OCI-AML-3; assay: Induction of differentiation in human OCI-AML-3 cells assessed as upregulation of CD11b response incubated for 4 days by flow cytometry analysis; conditions: OCI-AML-3, 96 h
[4] = test system: HL-60; assay: Induction of morphological changes in human HL-60 cells assessed as variations in nuclear segmentation at 10 uM; type: functional, cell-based
[5] = Semi-thermodynamic aqueous solubility of compound; type: physicochemical; conditions: buffer; read-out: Therm_solubility
[6] = Solubility of compound at pH 7; type: physicochemical; conditions: buffer
[7] = Solubility of compound at pH 1; type: physicochemical; conditions: buffer
[8] = Apparent permeability across apical to basolateral side in human Caco-2 cells; type: ADME, cell-based
[9] = Plasma protein binding in mouse; type: ADME, cell-free; conditions: read-out: PPB (converted)
[10] = test system: THP-1; assay: Induction of differentiation in human THP-1 cells assessed as reduction in live cell number at 123 nM incubated for 4 days by acridine orange/DAPI staining based analysis; type: functional; conditions: time 4.0 day
[11] = test system: ME-1; assay: Induction of differentiation in human ME-1 cells assessed as reduction in live cell number at 123 nM incubated for 4 days by acridine orange/DAPI staining based analysis; type: functional; conditions: time 4.0 day
[12] = test system: Kasumi 1; assay: Induction of differentiation in human Kasumi 1 cells assessed as reduction in live cell number at 123 nM incubated for 4 days by acridine orange/DAPI staining based analysis; type: functional; conditions: time 4.0 day
[13] = test system: HL-60; assay: Induction of morphological changes in human HL-60 cells assessed as variations in cell size and shape at 10 uM; type: functional, cell-based
[14] = test system: HL-60; assay: Induction of morphological changes in human HL-60 cells assessed as variations in nuclear:cytoplasmic ratio at 10 uM; type: functional, cell-based
[15] = test system: THP-1; assay: Induction of morphological changes in human THP-1 cells assessed as variations in cell size and shape at 10 uM; type: functional, cell-based
[16] = test system: THP-1; assay: Induction of morphological changes in human THP-1 cells assessed as variations in nuclear segmentation at 10 uM; type: functional, cell-based
[17] = test system: THP-1; assay: Induction of morphological changes in human THP-1 cells assessed as variations in nuclear:cytoplasmic ratio at 10 uM; type: functional, cell-based
[18] = test system: OCI-AML-3; assay: Induction of morphological changes in human OCI-AML-3 cells assessed as variations in cell size and shape at 10 uM; type: functional, cell-based
[19] = test system: OCI-AML-3; assay: Induction of morphological changes in human OCI-AML-3 cells assessed as variations in nuclear segmentation at 10 uM; type: functional, cell-based
[20] = test system: KG-1; assay: Induction of morphological changes in human KG-1 cells assessed as variations in cell size and shape at 10 uM; type: functional, cell-based
[21] = test system: KG-1; assay: Induction of morphological changes in human KG-1 cells assessed as variations in nuclear segmentation at 10 uM; type: functional, cell-based
[22] = test system: KG-1; assay: Induction of morphological changes in human KG-1 cells assessed as variations in nuclear:cytoplasmic ratio at 10 uM; type: functional, cell-based
[23] = test system: KG-1; assay: Induction of morphological changes in human KG-1 cells assessed as appearance of granules and vacuoles at 10 uM; type: functional, cell-based
[24] = test system: ME-1; assay: Induction of morphological changes in human ME-1 cells assessed as variations in cell size and shape at 10 uM; type: functional, cell-based
[25] = test system: ME-1; assay: Induction of morphological changes in human ME-1 cells assessed as variations in nuclear segmentation at 10 uM; type: functional, cell-based
[26] = test system: ME-1; assay: Induction of morphological changes in human ME-1 cells assessed as variations in nuclear:cytoplasmic ratio at 10 uM; type: functional, cell-based
[27] = test system: ME-1; assay: Induction of morphological changes in human ME-1 cells assessed as appearance of granules and vacuoles at 10 uM; type: functional, cell-based
[28] = test system: Kasumi 1; assay: Induction of morphological changes in human Kasumi 1 cells assessed as variations in cell size and shape at 10 uM; type: functional, cell-based
[29] = test system: Kasumi 1; assay: Induction of morphological changes in human Kasumi 1 cells assessed as variations in nuclear segmentation at 10 uM; type: functional, cell-based
[30] = test system: Kasumi 1; assay: Induction of morphological changes in human Kasumi 1 cells assessed as appearance of granules and vacuoles at 10 uM; type: functional, cell-based
[31] = Half life in CD-1 mouse at 3 mg/kg, po administered as single dose and measured over 24 hrs; type: ADME, organism-based; conditions: in vivo
[32] = Apparent volume of distribution during terminal phase in CD-1 mouse at 3 mg/kg, po administered as single dose and measured over 24 hrs; type: ADME, organism-based; conditions: in vivo, read-out: Vz/F
[33] = Oral bioavailability in CD-1 mouse at 3 mg/kg administered as single dose and measured over 24 hrs; type: ADME, organism-based; conditions: in vivo
[34] = Dose normalized AUC (0 to 8 hrs) in CD-1 mouse at 3 mg/kg, po administered as single dose and measured over 24 hrs; type: ADME, organism-based; conditions: in vivo
[35] = Cmax in CD-1 mouse at 3 mg/kg, po administered as single dose and measured over 24 hrs; type: ADME, organism-based; conditions: in vivo
[36] = Cmax in CD-1 mouse at 20 mg/kg, po administered as single dose and measured on day 1; type: ADME, organism-based; conditions: in vivo, time 1 day
[37] = Dose normalized Cmax in CD-1 mouse at 20 mg/kg, po administered as single dose and measured on day 1; type: ADME, organism-based; conditions: in vivo, 24 h, time 1 day
[38] = Half life in CD-1 mouse at 20 mg/kg, po administered as repeated dose on day 1 and 4; type: ADME, organism-based; conditions: in vivo, time 4 day
[39] = AUC (0 to 8 hrs) in CD-1 mouse at 20 mg/kg, po administered as repeated dose on day 1 and 4; type: ADME, organism-based; conditions: in vivo, time 4 day
[40] = Cmax in CD-1 mouse at 20 mg/kg, po administered as repeated dose on day 1 and 4; type: ADME, organism-based; conditions: in vivo, time 4 day
[41] = Dose normalized Cmax in CD-1 mouse at 20 mg/kg, po administered as repeated dose on day 1 and 4; type: ADME, organism-based; conditions: in vivo, 96 h, time 4 day
[42] = Dose normalized AUC (0 to 8 hrs) in CD-1 mouse at 1 mg/kg, po administered as single dose and measured on day 1; type: ADME, organism-based; conditions: in vivo, 24 h, time 1 day
[43] = Dose normalized Cmax in CD-1 mouse at 1 mg/kg, po administered as single dose and measured on day 1; type: ADME, organism-based; conditions: in vivo, 24 h, time 1 day
[44] = Half life in CD-1 mouse at 1 mg/kg, po administered as repeated dose on day 1 and 4; type: ADME, organism-based; conditions: in vivo, time 4 day
[45] = AUC (0 to 8 hrs) in CD-1 mouse at 1 mg/kg, po administered as repeated dose on day 1 and 4; type: ADME, organism-based; conditions: in vivo, time 4 day
[46] = Dose normalized AUC (0 to 8 hrs) in CD-1 mouse at 1 mg/kg, po administered as repeated dose on day 1 and 4; type: ADME, organism-based; conditions: in vivo, 96 h, time 4 day
[47] = Cmax in CD-1 mouse at 1 mg/kg, po administered as repeated dose on day 1 and 4; type: ADME, organism-based; conditions: in vivo, time 4 day
[48] = Dose normalized Cmax in CD-1 mouse at 1 mg/kg, po administered as repeated dose on day 1 and 4; type: ADME, organism-based; conditions: in vivo, 96 h, time 4 day
[49] = Toxicity in CD-1 mouse assessed as adverse effects at 3 mg/kg, po administered twice daily for 7 days; type: organism-based; conditions: in vivo, 168 h, time 7 day

Cc1cc(F)ccc1-c1cc(NS(C)(=O)=O)c2ncc(-c3ccc4c(cnn4C)c3)n2c1 gave an AUC(0-t) at 24 h [1] of 4460 ng·h/mL, an EC50 [2] of 69 nM and an EC50 [3] of 25 nM. For the same compound, the Activity [4] was “Active”, the solubility thermodynamic [5] was 21 µM (≈ 9.44 µg/mL) and the solubility [6] was 21 µM (≈ 9.44 µg/mL). The solubility [7] was over 100 µM, the Papp A→B [8] was 16 ×10⁻⁶ cm/s and the fraction unbound [9] was 0.005. For the same compound, the Activity [10] was “Active”, the Activity [11] was “Active” and the Activity [12] was “Active”. The Activity [13] was “Active”, the Activity [14] was “Active” and the Activity [15] was “Active”. The Activity [16] was “Active”, the Activity [17] was “Active” and the Activity [18] was “Active”. For the same compound, the Activity [19] was “Active”, the Activity [20] was “Active” and the Activity [21] was “Active”. For the same compound, the Activity [22] was “Active”, the Activity [23] was “Active” and the Activity [24] was “Active”. For the same compound, the Activity [25] was “Active”, the Activity [26] was “Active” and the Activity [27] was “Active”. For the same compound, the Activity [28] was “Active”, the Activity [29] was “Active” and the Activity [30] was “Active”. The half-life [31] was 2.2 h, the Vd/F [32] was 3.1 L/kg and the bioavailability [33] was 100%. The AUC/dose [34] was 1021 ng·h/mL, the Cmax [35] was 360 ng/mL and the Cmax [36] was 677 ng/mL. For the same compound, the Cmax/dose [37] was 34 ng/mL, the half-life [38] was 4.1 h and the AUC(0-t) at 96 h [39] was 4370 ng·h/mL. The Cmax [40] was 784 ng/mL, the Cmax/dose [41] was 39 ng/mL and the AUC/dose [42] was 845 ng·h/mL. It also gave a Cmax/dose [43] of 187 ng/mL, a half-life [44] of 2.5 h and an AUC(0-t) at 96 h [45] of 731 ng·h/mL. It also gave an AUC/dose [46] of 731 ng·h/mL, a Cmax [47] of 204 ng/mL and a Cmax/dose [48] of 204 ng/mL. For the same compound, the Activity [49] was “Non-Toxic”.
